From article PMC11554605, “Pharmacological differences between human and mouse P2X4 receptor explored using old and new tools” (Purinergic Signalling, 2024)
“Also recorded” adds a separate entry of the source. Where two headings read alike, the source gives them in different places.

Experiments:
human P2X4 [1] = target: T1, human P2X4 (Homo sapiens, UniProt Q99571); experiment: Intracellular Ca2+ assay (Fura-2, FlexStation 3), agonist responses in 1321N1 cells stably expressing human P2X4; format: cell-based; details: for Emax: 1321-N1, read-out: Efficacy Human (maximal response to ligand as a percentage of maximal response to ATP)
T1 construct: expressed in transfected cells
T1 sequence (Q99571 1-388): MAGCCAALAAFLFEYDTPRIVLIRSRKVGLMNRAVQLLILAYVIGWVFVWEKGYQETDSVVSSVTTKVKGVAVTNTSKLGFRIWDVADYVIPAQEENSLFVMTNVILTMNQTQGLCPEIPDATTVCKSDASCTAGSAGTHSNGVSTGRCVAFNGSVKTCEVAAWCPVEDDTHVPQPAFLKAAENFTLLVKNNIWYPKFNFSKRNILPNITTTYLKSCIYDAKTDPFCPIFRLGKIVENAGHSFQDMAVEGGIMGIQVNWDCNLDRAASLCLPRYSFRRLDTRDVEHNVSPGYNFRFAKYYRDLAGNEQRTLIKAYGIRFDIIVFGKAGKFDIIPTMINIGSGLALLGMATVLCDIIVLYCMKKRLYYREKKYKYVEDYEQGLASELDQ

mouse P2X4 [2] = target: T2, mouse P2X4 (Mus musculus, UniProt Q9JJX6); experiment: Intracellular Ca2+ assay (Fura-2, FlexStation 3), agonist responses in 1321N1 cells stably expressing mouse P2X4; format: cell-based; details: for Emax: 1321-N1, read-out: Efficacy Mouse (maximal response to ligand as a percentage of maximal response to ATP); for EC50: 1321N1 cells expressing mouse P2X4, peak Ca2+ response
T2 construct: expressed in transfected cells
T2 sequence (Q9JJX6 1-388): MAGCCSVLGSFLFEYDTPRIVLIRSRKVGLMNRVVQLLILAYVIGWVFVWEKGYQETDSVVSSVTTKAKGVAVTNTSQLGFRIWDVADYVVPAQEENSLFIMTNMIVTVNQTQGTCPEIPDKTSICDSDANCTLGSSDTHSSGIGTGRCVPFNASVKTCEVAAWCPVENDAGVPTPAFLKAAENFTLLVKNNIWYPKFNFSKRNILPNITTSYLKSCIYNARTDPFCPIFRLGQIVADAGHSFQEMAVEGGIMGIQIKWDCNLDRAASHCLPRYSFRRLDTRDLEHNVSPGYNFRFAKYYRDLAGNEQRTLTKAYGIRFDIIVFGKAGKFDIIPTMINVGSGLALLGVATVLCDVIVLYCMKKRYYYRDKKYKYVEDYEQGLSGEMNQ

human P2X4 [3] = target: T1, human P2X4; experiment: Intracellular Ca2+ assay, antagonists against Ca2+ responses evoked by EC80 ATP (1.5 µM) in 1321N1 cells expressing human P2X4; format: cell-based
rat P2X4 = details: cited from earlier work
mouse P2X4 [4] = target: T2, mouse P2X4; experiment: Intracellular Ca2+ assay, antagonists against Ca2+ responses evoked by EC80 ATP (1.5 µM) in 1321N1 cells expressing mouse P2X4; format: cell-based
human P2X4 [5] = target: T1, human P2X4; details: cited from earlier work
mouse P2X4 [6] = target: T2, mouse P2X4; details: cited from earlier work
[7] = 1321N1 cells expressing human P2X4, peak Ca2+ response, read-out: EC50 Human
[8] = 30 µM antagonist, vs 1.5 µM ATP
[9] = 10 µM antagonist, vs 1.5 µM ATP
[10] = 100 µM antagonist, vs 1.5 µM ATP
[11] = 20 µM antagonist, vs 1.5 µM ATP

Structure (SMILES): CSc1nc(N)c2ncn([C@@H]3O[C@H](COP(=O)(O)OP(=O)(O)OP(=O)(O)O)[C@@H](O)[C@H]3O)c2n1 [2-MeSATP, 2-(Methylthio)adenosine 5′-triphosphate]
- Emax (human P2X4 [1]): 57 ± 6%
- EC50 (human P2X4 [1]; [7]): 2 ± 0.2 µM
- Agonist action at human P2X4 (in words) (human P2X4 [1]; human P2X4): partial agonist
- Emax (mouse P2X4 [2]): 65 ± 2%
- EC50 (mouse P2X4 [2]): 8 ± 2 µM
- Agonist action at mouse P2X4 (in words) (mouse P2X4 [2]; mouse P2X4): partial agonist

Structure (SMILES): O=C1CN=C(c2cccc(Br)c2)c2oc3ccccc3c2N1 [5-BDBD, 5-(3-Bromophenyl)-1,3-dihydro-2H-benzofuro[3,2-e]-1,4-diazepin-2-one]
- % inhibition Human (human P2X4 [3]; [8]): 97 ± 3% (30 µM)
- Antagonist action at human P2X4 (in words) (human P2X4 [3]; vs 1.5 µM ATP): completely inhibit
- Antagonist action at rat P2X4 (literature) (rat P2X4; ref 37): sensitivity
- % inhibition Mouse (mouse P2X4 [4]; [8]): 10 ± 8% (30 µM)
- Antagonist action at mouse P2X4 (in words) (mouse P2X4 [4]; up to 100 µM): insensitive
- Antagonist action at mouse P2X4 (in words) (mouse P2X4 [4]; vs 1.5 µM ATP): not antagonised; also recorded: not an antagonist

Structure (SMILES): Nc1ncnc2c1ncn2[C@@H]1O[C@H](COP(=O)(O)OP(=O)(O)OP(=O)(O)O)[C@@H](O)[C@H]1O [ATP, adenosine 5′-triphosphate]
- EC50 (human P2X4 [1]; [7]): 0.747 ± 0.18 µM
- EC80 (human P2X4 [1]; human P2X4): 1.5 ± 0.3 µM
- EC50 (mouse P2X4 [2]): 0.565 ± 0.085 µM

Structure (SMILES): Nc1ncnc2c1ncn2[C@@H]1O[C@H](CO[P@](=O)(O)O[P@](=O)(O)O[P@@](=O)(O)S)[C@@H](O)[C@H]1O [ATPγS, Adenosine-5′-O-(3-thio-triphosphate)]
- Emax (human P2X4 [1]): 9 ± 3%
- Agonist action at human P2X4 (in words) (human P2X4 [1]; human P2X4): did not activate; also recorded: not activated
- Agonist action at human P2X4 (in words) (human P2X4 [1]; up to 300 µM): does not activate
- Agonist action at human P2X4 (literature) (human P2X4 [5]; ref 33): partial agonism
- Emax (mouse P2X4 [2]): 45 ± 4%
- EC50 (mouse P2X4 [2]): 18 ± 1 µM
- Agonist action at mouse P2X4 (in words) (mouse P2X4 [2]; mouse P2X4): partial agonist

Structure (SMILES): Nc1ncnc2c1ncn2[C@@H]1O[C@H](COP(=O)(O)OP(=O)(O)OP(=O)(O)OP(=O)(O)OC[C@H]2O[C@@H](n3cnc4c(N)ncnc43)[C@H](O)[C@@H]2O)[C@@H](O)[C@H]1O [Ap4A, Diadenosine tetraphosphate]
- Agonist action at mouse P2X4 (literature) (mouse P2X4 [6]; ref 17): activates mouse P2X4 at low micromolar concentrations
- Agonist action at mouse P2X4 (literature) (mouse P2X4 [6]; ref 35): insensitive
- Agonist potency at rat P2X4 (literature) (rat P2X4; ref 36): equipotent with ATP
- Agonist action at human P2X4 (in words) (human P2X4 [1]; tested up to 1 mM): did not activate
- Agonist action at human P2X4 (literature) (human P2X4 [5]; ref 35, ref 17): activation of human P2X4 by Ap4A at nanomolar concentrations
- Agonist action at mouse P2X4 (in words) (mouse P2X4 [2]; mouse P2X4): not an agonist
- Agonist action at mouse P2X4 (in words) (mouse P2X4 [2]; tested up to 1 mM): did not activate

Structure (SMILES): NS(=O)(=O)c1cc(NC(=O)Cc2ccccc2)ccc1Oc1cccc(Cl)c1 [BAY-1797, N-[4-(3-Chlorophenoxy)-3-sulfamoylphenyl]-2-phenylacetamide]
- % inhibition Mouse (mouse P2X4 [4]; [9]): 99 ± 2% (10 µM)

Structure (SMILES): CC(C)c1cc(Br)c(NC(=O)Nc2cccnc2)c(Br)c1 [BX-430, 1-(2,6-Dibromo-4-isopropyl-phenyl)-3-(3-pyridyl)urea]
- % inhibition Human (human P2X4 [3]; [9]): 96 ± 3% (10 µM)
- Antagonist action at human P2X4 (in words) (human P2X4 [3]; vs 1.5 µM ATP): abolished receptor activity
- % inhibition Mouse (mouse P2X4 [4]; [9]): 0 ± 3% (10 µM)
- Antagonist action at mouse P2X4 (in words) (mouse P2X4 [4]; up to 100 µM): insensitive
- Antagonist action at mouse P2X4 (in words) (mouse P2X4 [4]; vs 1.5 µM ATP): not antagonised

Structure (SMILES): Nc1ncnc2c1ncn2C1OC(COP(=O)(O)OP(=O)(O)OP(=O)(O)O)C(OC(=O)c2ccc(C(=O)c3ccccc3)cc2)C1O (stereo not drawn) [BzATP, 2′(3′)-O-(4-Benzoylbenzoyl)adenosine 5′-triphosphate]
- Emax (human P2X4 [1]): 35 ± 4%
- EC50 (human P2X4 [1]; [7]): 11 ± 2 µM
- Agonist action at human P2X4 (in words) (human P2X4 [1]; human P2X4): partial agonist
- Emax (mouse P2X4 [2]): 27 ± 2%
- EC50 (mouse P2X4 [2]): 24 ± 16 µM
- Agonist action at mouse P2X4 (in words) (mouse P2X4 [2]; mouse P2X4): partial agonist

Structure (SMILES): Nc1ccn([C@@H]2O[C@H](COP(=O)(O)OP(=O)(O)OP(=O)(O)O)[C@@H](O)[C@H]2O)c(=O)n1 [CTP, Cytidine 5′-triphosphate]
- Emax (human P2X4 [1]): 67 ± 6%
- Agonist action at human P2X4 (in words) (human P2X4 [1]; human P2X4): partial agonist
- Emax (mouse P2X4 [2]): 89 ± 5%
- Agonist action at mouse P2X4 (in words) (mouse P2X4 [2]; mouse P2X4): full agonist

Structure (SMILES): Cc1nc(/N=N/c2ccc(S(=O)(=O)O)cc2S(=O)(=O)O)c(COP(=O)(O)O)c(C=O)c1O [PPADS, Pyridoxalphosphate-6-azophenyl-2′,4′-disulfonic acid]
- % inhibition Human (human P2X4 [3]; [10]): 98 ± 3% (100 µM)
- % inhibition Mouse (mouse P2X4 [4]; [10]): 87 ± 16%(100 µM)
- Antagonist action at human P2X4 (literature) (human P2X4 [5]; ref 16-18): inhibit the human P2X4 receptor fully

Structure (SMILES): Cc1ccc(S(=O)(=O)N2c3ccccc3Oc3ccccc32)cc1 [PSB-12062, N-(p-methylphenylsulfonyl)phenoxazine]
- % inhibition Human (human P2X4 [3]; [11]): 99 ± 4% (20 µM)
- Antagonist action at human P2X4 (in words) (human P2X4 [3]; vs 1.5 µM ATP): abolished activity
- % inhibition Mouse (mouse P2X4 [4]; [11]): 59 ± 7% (20 µM)
- IC50 (mouse P2X4 [4]; read-out: IC50 Mouse): 3 ± 2 µM

Structure (SMILES): Nc1ncnc2c1ncn2[C@@H]1O[C@H](COP(=O)(O)OP(=O)(O)OP(=O)(O)O)[C@H]2OC3(O[C@H]21)C([N+](=O)[O-])=CC(=[N+]([O-])[O-])C=C3[N+](=O)[O-] (stereo partly drawn) [TNP-ATP, 2′,3′-O-(2,4,6-Trinitrophenyl)-ATP]
- Antagonist action at human P2X4 (in words) (human P2X4 [3]): completely inhibited
- % inhibition Human (human P2X4 [3]; [10]): 94 ± 1% (100 µM)
- IC50 (mouse P2X4 [4]): 93 ± 4 µM
- % inhibition Mouse (mouse P2X4 [4]; [10]): 43 ± 7% (100 µM)

Structure (SMILES): Cc1ccc(C(=O)Nc2ccc(S(=O)(=O)O)c3cc(S(=O)(=O)O)cc(S(=O)(=O)O)c23)cc1NC(=O)c1cccc(NC(=O)Nc2cccc(C(=O)Nc3cc(C(=O)Nc4ccc(S(=O)(=O)O)c5cc(S(=O)(=O)O)cc(S(=O)(=O)O)c45)ccc3C)c2)c1 [suramin, 8,8′-{Carbonylbis[imino-3,1-phenylenecarbonylimino(4-methyl-3,1-phenylene)carbonylimino]}di(1,3,5-naphthalenetrisulfonic acid)]
- Antagonist action at human P2X4 (in words) (human P2X4 [3]; up to 100 µM): completely insensitive
- Antagonist action at mouse P2X4 (in words) (mouse P2X4 [4]; up to 100 µM): completely insensitive

Structure (SMILES): Nc1ncnc2c1ncn2C1OC(COP(=O)(O)CP(=O)(O)OP(=O)(O)O)C(O)C1O (stereo not drawn) [α,β-meATP, α,β-Methyleneadenosine 5′-triphosphate]
- EC50 (human P2X4 [1]): 7 ± 0.7 µM
- Emax (human P2X4 [1]): 15 ± 2%
- Agonist action at human P2X4 (in words) (human P2X4 [1]; human P2X4): can be activated; also recorded: weak partial agonist
- Emax (mouse P2X4 [2]): 5 ± 2%
- Agonist action at mouse P2X4 (in words) (mouse P2X4 [2]; mouse P2X4): no significant effect

Structure (SMILES): C#CCNP(=O)(O)OP(=O)(O)OP(=O)(O)OCC1OC(n2cnc3c(N)ncnc32)C(O)C1O (stereo not drawn) [γ-[(Propargyl)-imido]-ATP, Adenosine-5′-[γ-(propargyl)-imido]triphosphate]
- Emax (human P2X4 [1]): 85 ± 5%
- EC50 (human P2X4 [1]; [7]): 20 ± 2 µM
- Agonist action at human P2X4 (in words) (human P2X4 [1]; human P2X4): partial agonism
- Emax (mouse P2X4 [2]): 90 ± 11%
- EC50 (mouse P2X4 [2]): 20 ± 2 µM
- Agonist action at mouse P2X4 (in words) (mouse P2X4 [2]; mouse P2X4): full agonist
